One experiment addresses KRAS-WT (Homo sapiens, UniProt P01116). The experiment can be described thus: SOS-catalyzed nucleotide exchange assay (Procedure A, TR-FRET), KRAS-WT. The class given is biochemical. The following applies: nucleotide exchange, read-out: KRAS WT GNE IC50. The essentials:
(§1)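 Signal ratio (520/495 nm, excitation 340 nm) reports Bodipy-GDP retention on biotinylated RAS after SOS-catalyzed exchange with 3 mM GTP. SOS was 40 nM, except 160 nM for G12V. Room-temperature exchange lasted 60 min (90 min for G12V), following a 60 min compound preincubation.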
For orientation: TR-FRET usually uses a lanthanide donor and a delayed reading to cut background.

Experiment [1] has as its target KRAS-G12C (C51S/C80L/C118S) (Homo sapiens, UniProt P01116, C118S/C51S/C80L/G12C). The experiment can be described thus: SOS-catalyzed nucleotide exchange assay (Procedure A, TR-FRET), KRAS-G12C. In kind it is biochemical. The following applies: nucleotide exchange, Procedure A; read-out: KRAS G12C GNE IC50. In short, it runs like this:
as §1

The next experiment has as its target KRAS-G12D (Homo sapiens, UniProt P01116, G12D). The experiment can be described thus: SOS-catalyzed nucleotide exchange assay (Procedure A, TR-FRET), KRAS-G12D. As to conditions: nucleotide exchange, read-out: KRAS G12D GNE IC50. The class given is biochemical. The essentials: as §1
For another experiment, the target named is KRAS-G12V (Homo sapiens, UniProt P01116, G12V). The experiment can be described thus: SOS-catalyzed nucleotide exchange assay (Procedure A, TR-FRET), KRAS-G12V. In kind it is biochemical. The following applies: nucleotide exchange, read-out: KRAS G12V GNE IC50. The essentials: as §1
A further experiment deals with KRAS-G13D (Homo sapiens, UniProt P01116, G13D). The experiment can be described thus: SOS-catalyzed nucleotide exchange assay (Procedure A, TR-FRET), KRAS-G13D. The class given is biochemical. The following applies: nucleotide exchange, Procedure A; read-out: KRAS G13D GNE IC50.
The next experiment deals with PANC08.13 cells. The experiment can be described thus: Cellular phospho-ERK assay, PANC08.13 cells (homozygous KRAS-G12D). In kind it is cell-based. The following applies: Homo sapiens, read-out: PANC-08.13 pERK IC50. As to the method: Procedure for Cellular Phospho-ERK Assay in KRAS Wild Type and Mutant (G12D, G12V) Cell Lines
MKN-1 cells (JCRB JCRB0252) containing amplified wild-type KRAS, were cultured in growth medium that contains RPMI 1640-GlutaMAX™-I (ThermoFisher Scientific 61870) containing 10% heat inactivated fetal bovine serum (ThermoFisher Scientific 10091148), 1 mM sodium pyruvate and 10 mM HEPES. PANC08.13 cells (ATCC® CRL-2551™), containing homozygous KRAS-G12D activating mutation, were cultured in growth medium made of RPMI1640-GlutaMAX™-I (ThermoFisher Scientific 61870) containing 15% heat inactivated fetal bovine serum (ThermoFisher Scientific 10091148)). AsPC-1 cells (ATCC® CRL-1682™), containing homozygous KRAS-G12D activating mutation, were cultured in T150 flask in growth medium (RPMI medium 1640-GlutaMAX™-I (ThermoFisher Scientific 61870) containing 10% fetal bovine serum (ThermoFisher Scientific 10091148)). SW620 cells (ATCC® […]), containing homozygous KRAS-G12V activating mutation, were cultured in growth medium that contains RPMI 1640-GlutaMAX™-I (ThermoFisher Scientific 61870) containing 10% heat inactivated fetal bovine serum (ThermoFisher Scientific 10091148).
Cells for the assay were harvested in growth medium after TrypLE (ThermoFisher scientific 12604021) digestion and were seeded in a 384-well collagen coated cell culture plate (Corning 356702) at a density of 10,000-15,000 cells/20 μL/well, and incubated at 37° C., 5% CO2 overnight. The compound (with 10 mM stock concentration) dose-response titrations were prepared [30 μM final ERK detection assay concentration and 1:3 dilutions, 10-point dose response] and appropriate amounts (270 nL) of test compounds were dispensed in a 384-well intermediate plate using an Echo 550 liquid handler. 30 μL/well of RPMI medium 1640-GlutaMAX™—I was added to the intermediate plate and the contents of the intermediate plate (10 μL/well) were then transferred to the 384-well collagen coated cell culture plate, which was incubated at 37° C., 5% CO2 for 2 hours. After removal of medium from the collagen coated cell culture plate, cells were lysed in lysis buffer from Alpha SureFire® Ultra™ Multiplex p-ERK and total ERK assay kit (PerkinElmer MPSU-PTERK) containing Halt™ Protease and Phosphatase inhibitor cocktail (ThermoFisher Scientific 78446) at room temperature with constant shaking at 300 rpm for 30 minutes. The cell lysates were then transferred to an OptiPlate-384 plate (PerkinElmer 6005620), and the phosphorylation of ERK (p-ERK) and total ERK levels were detected by Alpha SureFire® Ultra™ Multiplex p-EEK kit and total ERK assay kit (PerkinElmer MPSU-PTERK) following the manufacturer's protocol. Assay plates were read on a En Vision Multimode Plate Reader (PerkinElmer), and the ratio of p-ERK vs. total ERK in each well was used as the final readout. Dose response curves were analyzed using a 4-parameter logistic model to calculate IC50 values using Spotfire software.

For a further experiment, the system named is MKN-1 cells. The experiment can be described thus: Cellular phospho-ERK assay, MKN-1 cells (amplified wild-type KRAS). In kind it is cell-based. The following applies: Homo sapiens, amplified wild-type KRAS, 2 hours, read-out: MKN1 pERK IC50. The essentials: (§2)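 p-ERK/total ERK ratio, measured by AlphaLISA SureFire Ultra multiplex in lysates, was fitted to a 4-parameter logistic model for IC50. Compound exposure was 2 h at 37° C, 5% CO2, 10-point 1:3 dilutions from 30 μM final, on cells plated the previous night.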

The test system of a further experiment is SW620 cells. The experiment can be described thus: Cellular phospho-ERK assay, SW620 cells (homozygous KRAS-G12V). In kind it is cell-based. The following applies: Homo sapiens, SW-620, KRAS-G12V, 2 hours, read-out: SW620 pERK IC50. The essentials:
as §2

The mark [2] stands for this setting: PANC-08-13, 2 hours compound incubation.

SMILES strings stand for the structures. Like-named read-outs stand apart in the source and are kept apart here.

KRAS-G13D, sequence (P01116 with tags, fused parts or gaps isoform P01116-2 G13D): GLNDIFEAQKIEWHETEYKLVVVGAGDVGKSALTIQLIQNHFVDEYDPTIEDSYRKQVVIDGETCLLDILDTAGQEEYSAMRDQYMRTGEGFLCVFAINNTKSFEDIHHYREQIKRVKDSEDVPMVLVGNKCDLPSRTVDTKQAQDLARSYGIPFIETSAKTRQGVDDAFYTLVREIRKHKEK
KRAS-WT, sequence (P01116 with tags, fused parts or gaps isoform P01116-2): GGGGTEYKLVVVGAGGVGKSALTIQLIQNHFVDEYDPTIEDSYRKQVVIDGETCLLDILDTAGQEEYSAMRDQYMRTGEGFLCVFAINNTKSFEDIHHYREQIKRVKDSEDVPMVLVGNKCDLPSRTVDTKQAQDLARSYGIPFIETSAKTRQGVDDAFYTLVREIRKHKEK
KRAS-G12V, sequence (P01116 with tags, fused parts or gaps isoform P01116-2 G12V): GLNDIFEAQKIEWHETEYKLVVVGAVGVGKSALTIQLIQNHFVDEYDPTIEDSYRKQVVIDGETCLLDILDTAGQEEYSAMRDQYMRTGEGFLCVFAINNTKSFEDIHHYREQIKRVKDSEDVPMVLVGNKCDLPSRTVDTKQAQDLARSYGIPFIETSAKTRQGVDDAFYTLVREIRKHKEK
KRAS-G12C (C51S/C80L/C118S), sequence (P01116 with tags, fused parts or gaps isoform P01116-2 G12C/C51S/C80L/C118S): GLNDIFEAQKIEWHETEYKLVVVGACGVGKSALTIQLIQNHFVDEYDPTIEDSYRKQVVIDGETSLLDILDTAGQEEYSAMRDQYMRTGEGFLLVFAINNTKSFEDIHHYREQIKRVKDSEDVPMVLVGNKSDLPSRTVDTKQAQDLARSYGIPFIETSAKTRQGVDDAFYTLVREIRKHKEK
KRAS-G12D, sequence (P01116 with tags, fused parts or gaps isoform P01116-2 G12D): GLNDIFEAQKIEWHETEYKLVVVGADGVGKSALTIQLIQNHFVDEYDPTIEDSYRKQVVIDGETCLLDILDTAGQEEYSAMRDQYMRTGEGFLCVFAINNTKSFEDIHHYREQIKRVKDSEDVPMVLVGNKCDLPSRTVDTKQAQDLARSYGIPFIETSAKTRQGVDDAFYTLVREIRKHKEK

Consider `Cc1cc2[nH]ncc2c(-c2nccc3c2sc2nc(OC[C@@]45CCCN4C[C@H](F)C5)nc(N4CCOC(CO)C4)c23)c1C(F)(F)F` (stereo partly drawn) [Ex-180, (4-(2-(((2R,7aS)-2-fluoro-tetrahydro-1H-pyrrolizin-7a(5H)-yl)methoxy)-8-(6-methyl-5-(trifluorometh-yl)-1H-indazol-4-yl)pyrido [4′,3′:4,5]thieno[2,3-d]pyr-imidin-4-yl)morpholin-2-yl)methanol], for which the IC50 (as a rule, the concentration that inhibits the measured activity by half) at KRAS-WT came to 0.725 µM; in experiment [1] it was 0.078 µM; on KRAS-G12D, 2.27 µM; on KRAS-G12V, 0.428 µM; at KRAS-G13D it was 0.813 µM; in the experiment on PANC08.13 cells (setting [2]), 3.93 µM.
On to `Cc1cc2[nH]ncc2c(-c2nccc3c2sc2nc(OC[C@@]45CCCN4C[C@H](F)C5)nc(N4CCOCC4)c23)c1C(F)(F)F` [Ex-179, 4-(2-(((2R,7aS)-2-fluorotetrahydro-1H-pyrrolizin-7a(5H)-yl)methoxy)-8-(6-methyl-5-(trifluoromethyl)-1H-indazol-4-yl)pyrido[4′,3′:4,5]thieno[2,3-d]pyrimidin-4-yl) morpholine], for which the 50% inhibitory concentration (IC50) at KRAS-WT was determined as 2.76 µM; in experiment [1] it was 0.124 µM; at KRAS-G12D it was 7.6 µM; at KRAS-G12V it was 1.6 µM; on KRAS-G13D, 1.32 µM; with PANC08.13 cells (setting [2]) it was 3.9 µM.
`C#Cc1c(F)ccc2nc(N)cc(-c3nccc4c3sc3nc(OC[C@@]56CCCN5C[C@H](F)C6)nc(N5CCOC[C@@](C)(O)C5)c34)c12` [Ex-178, (S)-4-(8-(2-amino-5-ethynyl-6-fluoroquinolin-4-yl)-2-(((2R,7aS)-2-fluorotetrahydro-1H-pyrrolizin-7a(5H)-yl)methoxy)pyrido[4′,3′: 4.5]thieno[2,3-d]pyrimidin-4-yl)-6-methyl-1,4-oxazepan-6-ol]: the IC50 was 1.28 µM on KRAS-WT; 0.241 µM in experiment [1]; 0.906 µM on KRAS-G12D; 0.657 µM on KRAS-G12V; 1.06 µM at KRAS-G13D; 1.7 µM in the experiment with PANC08.13 cells (setting [2]).
For `Cn1c2nc(OC[C@@]34CCCN3C[C@H](F)C4)nc(N3CCOC[C@@](C)(O)C3)c2c2ccnc(-c3c(C(F)F)c(Cl)cc4[nH]nc(C#N)c34)c21` (single isomer, unassigned) [Ex-12], the half-inhibitory concentration (IC50) on KRAS-WT stood at 5.93 µM; in experiment [1], 0.584 µM; on KRAS-G12D, 2.15 µM; at KRAS-G12V, 2.96 µM; at KRAS-G13D, 2.65 µM; with PANC08.13 cells (PANC-08-13, KRAS-G12D, 2 hours) it was 6.05 µM.
Turning to `CCn1c2nc(OC[C@@]34CCCN3C[C@H](F)C4)nc(N3CCOC[C@@](C)(O)C3)c2c2ccnc(-c3c(C(F)(F)F)c(C)cc4[nH]ncc34)c21` [Ex-24, (6S)-4-(9-ethyl-2-(((2R,7aS)-2-fluorotetrahydro-1H-pyrrolizin-7a(5H)-yl)methoxy)-8-(6-methyl-5-(trifluoromethyl)-1H-indazol-4-yl)-9H-pyrido[4′,3′:4,5]pyrrolo[2,3-d]pyrimidin-4-yl)-6-methyl-1,4-oxazepan-6-ol], the half-inhibitory concentration (IC50) was 0.929 µM on KRAS-WT; 0.224 µM in experiment [1]; 0.705 µM on KRAS-G12D; 0.492 µM at KRAS-G12V; 1.02 µM at KRAS-G13D; 0.749 µM in the experiment on PANC08.13 cells (PANC-08-13, KRAS-G12D, 2 hours).
Turning to `C[C@@]1(O)COCCN(c2nc(OC[C@@]34CCCN3C[C@H](F)C4)nc3sc4c(-c5c(C(F)F)ccc6[nH]ncc56)nccc4c23)C1` [Ex-134], the IC50 at KRAS-WT came to 7.21 µM; in experiment [1] it was 0.648 µM; on KRAS-G12D it was 1.16 µM; at KRAS-G12V, 0.876 µM; on KRAS-G13D, 2.31 µM; in the experiment on PANC08.13 cells (setting [2]) it was 2.68 µM.
In the case of `CCc1c(C)cc2[nH]ncc2c1-c1nccc2c1sc1nc(OC[C@@]34CCCN3C[C@H](F)C4)nc(N3CCOC[C@@](C)(O)C3)c12` [Ex-36, (6S)-4-(8-(5-ethyl-6-methyl-1H-indazol-4-yl)-2-(((2R,7aS)-2-fluorotetrahydro-1H-pyrrolizin-7a(5H)-yl)methoxy)pyrido[4′,3′:4,5]thieno[2,3-d]pyrimidin-4-yl)-6-methyl-1,4-oxazepan-6-ol], the 50% inhibitory concentration (IC50) at KRAS-WT stood at 0.33 µM; in experiment [1], 0.125 µM; on KRAS-G12D it was 0.164 µM; at KRAS-G12V it was 0.533 µM; at KRAS-G13D, 0.15 µM; in the experiment with PANC08.13 cells (PANC-08-13, KRAS-G12D, 2 hours), 0.268 µM.
As for `Cc1cc2[nH]nc(C#N)c2c(-c2nccc3c2sc2nc(OC[C@@]45CCCN4C[C@H](F)C5)nc(N4CCOC[C@@](C)(O)C4)c23)c1C(F)(F)F` [Ex-150, 4-(2-(((2R,7aS)-2-fluorotetrahydro-1H-pyrrolizin-7a(5H)-yl)methoxy)-4-((S)-6-hydroxy-6-methyl-1,4-oxazepan-4-yl)pyrido[4′,3′:4,5]thieno[2,3-d]pyrimidin-8-yl)-6-methyl-5-(trifluoromethyl)-1H-indazole-3-carbonitrile], the concentration for half-maximal inhibition (IC50) worked out at 1.87 µM at KRAS-WT; 0.743 µM in experiment [1]; 1.21 µM at KRAS-G12D; 2.12 µM on KRAS-G12V; 1.43 µM on KRAS-G13D; 0.974 µM with PANC08.13 cells (setting [2]).
On to `Cc1cc2[nH]ncc2c(-c2nccc3c2sc2nc(OC[C@@]45CCCN4C[C@H](F)C5)nc(NC4COC4)c23)c1C(F)(F)F` [Ex-184, 2-(((2R,7aS)-2-fluoro-tetrahydro-1H-pyrrolizin-7a(5H)-yl)methoxy)-8-(6-methyl-5-(trifluorometh-yl)-1H-indazol-4-yl)-N-(oxetan-3-yl)pyrido [4′,3′:4,5]thieno[2,3-d] pyrimidin-4-amine], for which the 50% inhibitory concentration (IC50) on KRAS-WT worked out at 0.822 µM; in experiment [1] it was 0.0967 µM; at KRAS-G12D it was 0.591 µM; at KRAS-G12V it was 0.194 µM; on KRAS-G13D it was 0.668 µM; with PANC08.13 cells (setting [2]) it was 0.812 µM.
For the molecule `Cc1cc2[nH]ncc2c(-c2nccc3c4c(N5CCOC[C@@](C)(O)C5)nc(OC[C@]5(CN(C)C)CC5(F)F)nc4n(C)c23)c1C(F)(F)F` [Ex-20, (6S)-4-(2-(((R)-1-((dimethylamino)methyl)-2,2-difluorocyclopropyl)methoxy)-9-methyl-8-(6-methyl-5-(trifluoromethyl)-1H-indazol-4-yl)-9H-pyrido[4′,3′:4,5]pyrrolo[2,3-d]pyrimidin-4-yl)-6-methyl-1,4-oxazepan-6-ol], the 50% inhibitory concentration (IC50) on KRAS-WT came out at 0.125 µM; at KRAS-G12D, 0.0379 µM; on KRAS-G12V, 0.0629 µM; in the experiment on MKN-1 cells it was 0.15 µM; in the experiment on PANC08.13 cells (PANC-08-13, KRAS-G12D, 2 hours), 0.0806 µM; in the experiment with SW620 cells it was 0.539 µM.

(Values after US20260176289A1, “SMALL MOLECULE INHIBITORS OF KRAS PROTEINS” (Merck Sharp & Dohme LLC, priority 2022, published 2026).)
